The experiment has as its system E. coli strain W3110. Briefly: Synergy assays: Biolog chemical sensitivity panels with Group IB metal, coefficient of drug interaction (CDI) from relative growth. The format is cell-based. The settings on record: for CDI (coefficient of drug interaction), copper mixed with biocide: Copper (mM) section; for CDI (coefficient of drug interaction), gold + biocide: Gold (μM).

[1] abbreviates: 1st of 3 copper concentrations (value not shown), 4th of four biocide concentrations.
The mark [2] stands for this setting: 2nd of 3 copper concentrations (value not shown), 1st of four biocide concentrations.
The mark [3] stands for this setting: 2nd of 3 copper concentrations (value not shown), 3rd of four biocide concentrations.
The mark [4] stands for this setting: 2nd of 3 copper concentrations (value not shown), 4th of four biocide concentrations.
Setting [5] is: 3rd of 3 copper concentrations (value not shown), 4th of four biocide concentrations.
The mark [6] stands for this setting: Gold section of Table 5, first of three gold concentrations (μM, value not given), biocide concentration 2 of 4.
Where [7] appears, read: Gold section of Table 5, first of three gold concentrations (μM, value not given), biocide concentration 4 of 4.
Where [8] appears, read: Gold section of Table 5, second of three gold concentrations (μM, value not given), biocide concentration 2 of 4.
Setting [9] is: Gold section of Table 5, second of three gold concentrations (μM, value not given), biocide concentration 4 of 4.
Setting [10] is: Gold section of Table 5, third of three gold concentrations (μM, value not given), biocide concentration 2 of 4.
Where [11] appears, read: Gold section of Table 5, third of three gold concentrations (μM, value not given), biocide concentration 4 of 4.
Setting [12] is: Silver 0.5 μM, biocide concentration 4 of 4.
The mark [13] stands for this setting: Silver 1.0 μM, biocide concentration 4 of 4.
Setting [14] is: Silver 5.0 μM, biocide concentration 4 of 4.
The mark [15] stands for this setting: Silver 0.5 μM, 2nd of four biocide concentrations, E. coli.
Setting [16] is: Silver 1.0 μM, 2nd of four biocide concentrations, E. coli.
Setting [17] is: Silver 5.0 μM, 2nd of four biocide concentrations, E. coli.
The mark [18] stands for this setting: Gold 5 μM, biocide concentration 3 of 4, E. coli.
[19] abbreviates: Gold 5 μM, biocide concentration 4 of 4, E. coli.
The mark [20] stands for this setting: Gold 25 μM, biocide concentration 3 of 4, E. coli.
Where [21] appears, read: Gold 25 μM, biocide concentration 4 of 4, E. coli.
Where [22] appears, read: Silver 0.5 μM, 4th of four biocide concentrations, E. coli.
[23] abbreviates: Silver 1.0 μM, 4th of four biocide concentrations, E. coli.
The mark [24] stands for this setting: Silver 5.0 μM, 4th of four biocide concentrations, E. coli.
Where [25] appears, read: […], biocide concentration 3 of 4, E. coli.
The mark [26] stands for this setting: […], biocide concentration 4 of 4, E. coli.
Where [27] appears, read: Silver 0.5 μM, 3rd of four biocide concentrations, E. coli.
[28] abbreviates: Silver 1.0 μM, 3rd of four biocide concentrations, E. coli.
Where [29] appears, read: Silver 5.0 μM, 3rd of four biocide concentrations, E. coli.
[30] abbreviates: Gold 50 μM, biocide concentration 4 of 4, E. coli.

As to `CN(C)C(=O)/N=N/C(=O)N(C)C` [diamide], the “CDI (coefficient of drug interaction), copper mixed with biocide” value (shortened to “CDI … with biocide”) by setting is: (1st of 3 copper concentrations (value not shown), 1st of four biocide concentrations) 1.02; (1st of 3 copper concentrations (value not shown), 2nd of four biocide concentrations) 0.98; (1st of 3 copper concentrations (value not shown), 3rd of four biocide concentrations) 0.96; under setting [1], 0.99; under setting [2], 0.78; (2nd of 3 copper concentrations (value not shown), 2nd of four biocide concentrations) 0.72. In addition, the “CDI … with biocide” value under setting [3] is “Tox”; the “CDI … with biocide” value under setting [4] is recorded as “Tox”; the “CDI … with biocide” value (3rd of 3 copper concentrations (value not shown), 1st of four biocide concentrations) came to 0.52; the “CDI … with biocide” value (3rd of 3 copper concentrations (value not shown), 2nd of four biocide concentrations) is on record as 0.51; the “CDI … with biocide” value (3rd of 3 copper concentrations (value not shown), 3rd of four biocide concentrations) is 0.52; the “CDI … with biocide” value under setting [5] came out at 0.56. The “CDI (coefficient of drug interaction)” value by setting is: (Gold section of Table 5, first of three gold concentrations (μM, value not given), biocide concentration 1 of 4) 0.99; under setting [6], 0.86; (Gold section of Table 5, first of three gold concentrations (μM, value not given), biocide concentration 3 of 4) “Tox”; under setting [7], “Tox”; (Gold section of Table 5, second of three gold concentrations (μM, value not given), biocide concentration 1 of 4) 0.98; under setting [8], 0.89. Further, the “CDI (coefficient of drug interaction)” value (Gold section of Table 5, second of three gold concentrations (μM, value not given), biocide concentration 3 of 4) is given as “Tox”; the “CDI (coefficient of drug interaction)” value under setting [9] is “Tox”; the “CDI (coefficient of drug interaction)” value (Gold section of Table 5, third of three gold concentrations (μM, value not given), biocide concentration 1 of 4) is reported as 0.98; the “CDI (coefficient of drug interaction)” value under setting [10] is on record as 0.93; the “CDI (coefficient of drug interaction)” value (Gold section of Table 5, third of three gold concentrations (μM, value not given), biocide concentration 3 of 4) was “Tox”; the “CDI (coefficient of drug interaction)” value under setting [11] is “Tox”. The CDI is, setting by setting: (Silver 0.5 μM, biocide concentration 1 of 4) 1.19; (Silver 0.5 μM, biocide concentration 2 of 4) 1.07; (Silver 0.5 μM, biocide concentration 3 of 4) “Tox”; under setting [12], “Tox”; (Silver 1.0 μM, biocide concentration 1 of 4) 1.01; (Silver 1.0 μM, biocide concentration 2 of 4) 0.90. Besides, the CDI entry runs as follows: (Silver 1.0 μM, biocide concentration 3 of 4) “Tox”; under setting [13], “Tox”; (Silver 5.0 μM, biocide concentration 1 of 4) 0.97; (Silver 5.0 μM, biocide concentration 2 of 4) 0.40; (Silver 5.0 μM, biocide concentration 3 of 4) “Tox”; under setting [14], “Tox”.

As to `CN(C)S(=O)(=O)N(SC(F)(Cl)Cl)c1ccccc1` [dichlofluanid], the “CDI … with biocide” value reads like this: under setting [1], “Tox”; under setting [2], “Tox”; under setting [4], “Tox”; under setting [5], “Tox”. In addition, the “CDI (coefficient of drug interaction)” value under setting [6] was “Tox”, the “CDI (coefficient of drug interaction)” value under setting [8] is on record as “Tox” and the “CDI (coefficient of drug interaction)” value under setting [10] was “Tox”. Further, the “CDI (coefficient of drug interaction), silver + biocide” value (from here on “CDI … silver + biocide”) under setting [15] is “Tox”; the “CDI … silver + biocide” value (Silver 1.0 μM, 1st of four biocide concentrations, E. coli) is “Tox”; the “CDI … silver + biocide” value under setting [16] was “Tox”; the “CDI … silver + biocide” value (Silver 5.0 μM, 1st of four biocide concentrations, E. coli) is “Tox”; the “CDI … silver + biocide” value under setting [17] was “Tox”.

Regarding `CCN(CC)C(=S)SSC(=S)N(CC)CC` [disulfiram], under setting [4], the “CDI … with biocide” value is listed as “Tox”. Also, the “CDI (coefficient of drug interaction)” value is reported as “Tox” under setting [18]; “Tox” under setting [19]; “Tox” under setting [20]; “Tox” under setting [21]; “Tox” under setting [25]; “Tox” under setting [26]. In addition, the “CDI … silver + biocide” value is, setting by setting: under setting [22], “Tox”; under setting [23], “Tox”; under setting [24], “Tox”.

For `CCCCCCCCCCCCNC(=N)N` [dodine], the “CDI … with biocide” value under setting [1] was “Tox”; the “CDI … with biocide” value under setting [3] was “Tox”; the “CDI … with biocide” value under setting [4] is given as “Tox”; the “CDI … with biocide” value under setting [5] was “Tox”. The “CDI (coefficient of drug interaction)” value is, setting by setting: under setting [7], “Tox”; under setting [9], “Tox”; under setting [11], “Tox”. Further, the “CDI … silver + biocide” value is recorded as “Tox” under setting [27]; “Tox” under setting [22]; “Tox” under setting [28]; “Tox” under setting [23]; “Tox” under setting [29]; “Tox” under setting [24].

Regarding `CCn1cc(C(=O)O)c(=O)c2cc(F)c(N3CCNCC3)nc21` [enoxacin], the “CDI (coefficient of drug interaction)” value reads like this: (Gold 50 μM, biocide concentration 3 of 4, E. coli) “Tox”; under setting [30], “Tox”.

As for `O=C1OC(CN2CCOCC2)CN1/N=C/c1ccc([N+](=O)[O-])o1` (centres unmarked) [furaltadone], the “CDI (coefficient of drug interaction)” value under setting [30] is “Tox”.

As to `CCCCc1ccc(C(=O)O)nc1` [fusaric acid], the CDI entry is recorded as “Tox” (Copper 0.1 mM, biocide concentration 3 of 4); “Tox” (Copper 0.1 mM, biocide concentration 4 of 4); “Tox” (Copper 0.5 mM, biocide concentration 3 of 4); “Tox” (Copper 0.5 mM, biocide concentration 4 of 4); “Tox” (Copper 1.0 mM, biocide concentration 3 of 4); “Tox” (Copper 1.0 mM, biocide concentration 4 of 4). Moreover, the “CDI (coefficient of drug interaction)” value under setting [18] is given as “Tox”; the “CDI (coefficient of drug interaction)” value under setting [19] is listed as “Tox”; the “CDI (coefficient of drug interaction)” value under setting [20] was “Tox”; the “CDI (coefficient of drug interaction)” value under setting [21] was “Tox”; the “CDI (coefficient of drug interaction)” value under setting [25] is listed as “Tox”; the “CDI (coefficient of drug interaction)” value under setting [26] is “Tox”. The “CDI … silver + biocide” value is, setting by setting: under setting [15], “Tox”; under setting [27], “Tox”; under setting [22], “Tox”; under setting [16], “Tox”; under setting [28], “Tox”; under setting [23], “Tox”. For the same molecule, the “CDI … silver + biocide” value runs as follows: under setting [17], “Tox”; under setting [29], “Tox”; under setting [24], “Tox”.

Turning to `O=C(O)c1cc(O)c(O)c(O)c1` [gallic acid], the “CDI (coefficient of drug interaction)” value is “Tox” (Copper (mM), 1st of 3 copper concentrations (head line not shown), biocide concentration 4 of 4, E. coli); “Tox” (Copper (mM), 2nd of 3 copper concentrations (head line not shown), biocide concentration 4 of 4, E. coli); “Tox” (Copper (mM), 3rd of 3 copper concentrations (head line not shown), biocide concentration 4 of 4, E. coli). The “CDI (coefficient of drug interaction), gold + biocide” value (“CDI … gold + biocide” for short) (first of 3 gold concentrations, biocide concentration 4 of 4) was “Tox”; the “CDI … gold + biocide” value (second of 3 gold concentrations, biocide concentration 4 of 4) is “Tox”; the “CDI … gold + biocide” value (third of 3 gold concentrations, biocide concentration 4 of 4) is listed as “Tox”. Also, the CDI entry is “Tox” under setting [12], “Tox” under setting [13] and “Tox” under setting [14].

(Values after patent publication US11382328B2, “Rapid drug discovery methods for pathogen inactivation” (priority 2019, dated 2022).)
